According to ChEMBL document CHEMBL1201862, “PubChem BioAssay data set” (2004):
The source made the active and inactive calls.

Experiments:
Genome polyprotein = Genome polyprotein (dengue virus type 2, UniProt P29990); assay: flavivirus cap methylation enzyme inhibition – biochemical, confirmation dose response, primary screen (AID 588689); format: functional
Protein RecA = target: T1, Protein RecA (Mycobacterium tuberculosis, UniProt P9WHJ3); assay: Fluorescence Cell-Free Homogeneous Dose Retest to Identify Inhibitors of RecA-Intein Splicing Activity. [Related pubchem assays (depositor defined):AID2097, AID2223, AID489010, AID492950]; format: functional
T1 sequence (P9WHJ3 whole entry): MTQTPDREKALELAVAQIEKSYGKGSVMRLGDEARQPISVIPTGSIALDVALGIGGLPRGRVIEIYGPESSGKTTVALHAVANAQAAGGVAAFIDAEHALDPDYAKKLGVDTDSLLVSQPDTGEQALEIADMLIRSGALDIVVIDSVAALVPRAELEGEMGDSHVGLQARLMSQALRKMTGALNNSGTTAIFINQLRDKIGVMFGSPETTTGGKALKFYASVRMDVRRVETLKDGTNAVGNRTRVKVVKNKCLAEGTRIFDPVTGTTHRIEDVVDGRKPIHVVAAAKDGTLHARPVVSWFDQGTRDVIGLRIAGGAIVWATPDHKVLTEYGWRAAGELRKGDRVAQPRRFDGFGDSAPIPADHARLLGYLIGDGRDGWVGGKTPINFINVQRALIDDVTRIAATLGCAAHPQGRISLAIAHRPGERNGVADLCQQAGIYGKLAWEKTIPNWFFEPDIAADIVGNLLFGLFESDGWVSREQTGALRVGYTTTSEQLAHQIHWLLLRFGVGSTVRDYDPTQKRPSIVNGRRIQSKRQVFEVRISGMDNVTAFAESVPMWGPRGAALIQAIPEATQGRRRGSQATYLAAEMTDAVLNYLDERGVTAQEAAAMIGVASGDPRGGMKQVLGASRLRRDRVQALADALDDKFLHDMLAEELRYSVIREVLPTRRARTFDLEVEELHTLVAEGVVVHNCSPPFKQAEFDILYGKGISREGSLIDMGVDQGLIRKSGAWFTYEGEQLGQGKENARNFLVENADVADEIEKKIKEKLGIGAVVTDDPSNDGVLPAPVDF

[1] = target: T2, Replicative DNA helicase DnaB (Mycobacterium tuberculosis, UniProt P9WMR3); assay: DnaB intein splicing inhibitors, dose response, biochemical, cell-free fluorescence (AID 449749); format: functional
T2 sequence (P9WMR3 whole entry): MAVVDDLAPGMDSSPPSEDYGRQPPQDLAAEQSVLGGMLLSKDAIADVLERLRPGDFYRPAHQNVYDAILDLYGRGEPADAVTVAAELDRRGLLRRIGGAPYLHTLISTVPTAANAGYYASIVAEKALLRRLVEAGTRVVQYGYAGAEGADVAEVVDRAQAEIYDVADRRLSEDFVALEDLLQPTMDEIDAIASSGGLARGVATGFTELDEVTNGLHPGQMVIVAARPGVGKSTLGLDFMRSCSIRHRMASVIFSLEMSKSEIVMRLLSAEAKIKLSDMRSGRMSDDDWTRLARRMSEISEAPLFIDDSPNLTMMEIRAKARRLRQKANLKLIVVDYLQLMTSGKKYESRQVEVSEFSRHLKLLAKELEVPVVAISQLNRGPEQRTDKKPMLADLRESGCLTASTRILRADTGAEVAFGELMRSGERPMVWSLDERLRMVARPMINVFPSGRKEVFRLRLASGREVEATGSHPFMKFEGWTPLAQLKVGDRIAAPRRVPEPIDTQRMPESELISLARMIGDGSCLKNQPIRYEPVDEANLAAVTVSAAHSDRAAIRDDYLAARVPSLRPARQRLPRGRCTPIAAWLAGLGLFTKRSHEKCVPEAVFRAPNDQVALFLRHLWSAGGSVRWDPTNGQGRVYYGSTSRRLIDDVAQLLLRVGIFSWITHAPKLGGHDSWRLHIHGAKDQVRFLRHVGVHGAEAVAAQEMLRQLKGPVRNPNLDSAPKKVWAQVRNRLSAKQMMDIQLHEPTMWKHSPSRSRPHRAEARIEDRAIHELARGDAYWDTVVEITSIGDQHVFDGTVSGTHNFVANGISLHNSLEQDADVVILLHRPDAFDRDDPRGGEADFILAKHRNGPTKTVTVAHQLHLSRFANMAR

[2] = intracellular Trypanosoma cruzi inhibitors in host cells – cell-based, plate reader, cherry-pick samples, set 3, dose response (AID 651818); format: functional;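 further: compounds incubated with infected cells for about four days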
[3] = target: T3, Adenosylmethionine-8-amino-7-oxononanoate aminotransferase (Mycobacterium tuberculosis, UniProt P9WQ81); assay: Mycobacterium tuberculosis BioA enzyme inhibitor Measured in Biochemical System Using Plate Reader - 2163-02_Inhibitor_Dose_CherryPick_Activity.; format: functional, Mycobacterium tuberculosis UT205
T3 sequence (P9WQ81 whole entry): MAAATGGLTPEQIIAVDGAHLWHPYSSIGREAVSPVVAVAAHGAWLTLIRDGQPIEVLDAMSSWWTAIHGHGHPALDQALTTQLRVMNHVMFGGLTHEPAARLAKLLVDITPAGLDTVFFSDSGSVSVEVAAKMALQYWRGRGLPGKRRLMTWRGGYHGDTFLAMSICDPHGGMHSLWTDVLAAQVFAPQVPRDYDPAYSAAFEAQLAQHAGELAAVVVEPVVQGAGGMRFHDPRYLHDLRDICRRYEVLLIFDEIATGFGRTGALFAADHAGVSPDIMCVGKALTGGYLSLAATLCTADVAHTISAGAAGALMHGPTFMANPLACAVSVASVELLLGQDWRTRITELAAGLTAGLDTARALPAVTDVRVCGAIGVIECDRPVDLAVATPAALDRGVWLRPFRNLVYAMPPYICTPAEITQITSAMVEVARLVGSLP

[4] = off-target signal loss in HeLa-CEM21 co-culture – HeLa F-luc CTL cells, cherry-picked, counter-screen for HIV-1 Env fusion inhibitor project, dose response (AID 652040); format: functional, cell-based;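 further: potency for signal decrease marking cytotoxic or nonspecific inhibition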
[5] = blockers of HIV-1 ZM109 envelope-driven cell-cell fusion – HeLa effector, CEM target cells, luciferase, cherry-pick, dose response (AID 652058); format: functional, cell-based;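 further: luciferase signal from HIV-1 Env mediated cell-cell fusion of effector and target cells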
[6] = blockers of HIV-1 envelope-mediated cell-cell fusion – cherry-pick, dose response (AID 652057); format: functional, cell-based
[7] = HIV-1 AD8 envelope cell-cell fusion blockers – cherry-pick, dose response (AID 652062); format: functional, cell-based;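 further: luciferase signal from cell-cell fusion driven by HIV-1 clade B AD8 Env; potency is for inhibitors of fusion seen as a drop in luminescence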
[8] = target: Voltage-dependent T-type calcium channel subunit alpha-1H (Homo sapiens, UniProt O95180); format: functional;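 further: channel activity triggered by adding a high calcium stimulation buffer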
Fatty acid synthase = Fatty acid synthase (Homo sapiens, UniProt P49327); assay: inhibition of human FAS-TE enzyme activity – biochemical, kinetic fluorescence intensity, dose response (AID 624326); format: functional;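 further: rate of fluorescence rise from hydrolysis of a fluorogenic O-methyl fluorescein ester substrate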
Sequence of Fatty acid synthase (P49327 whole entry): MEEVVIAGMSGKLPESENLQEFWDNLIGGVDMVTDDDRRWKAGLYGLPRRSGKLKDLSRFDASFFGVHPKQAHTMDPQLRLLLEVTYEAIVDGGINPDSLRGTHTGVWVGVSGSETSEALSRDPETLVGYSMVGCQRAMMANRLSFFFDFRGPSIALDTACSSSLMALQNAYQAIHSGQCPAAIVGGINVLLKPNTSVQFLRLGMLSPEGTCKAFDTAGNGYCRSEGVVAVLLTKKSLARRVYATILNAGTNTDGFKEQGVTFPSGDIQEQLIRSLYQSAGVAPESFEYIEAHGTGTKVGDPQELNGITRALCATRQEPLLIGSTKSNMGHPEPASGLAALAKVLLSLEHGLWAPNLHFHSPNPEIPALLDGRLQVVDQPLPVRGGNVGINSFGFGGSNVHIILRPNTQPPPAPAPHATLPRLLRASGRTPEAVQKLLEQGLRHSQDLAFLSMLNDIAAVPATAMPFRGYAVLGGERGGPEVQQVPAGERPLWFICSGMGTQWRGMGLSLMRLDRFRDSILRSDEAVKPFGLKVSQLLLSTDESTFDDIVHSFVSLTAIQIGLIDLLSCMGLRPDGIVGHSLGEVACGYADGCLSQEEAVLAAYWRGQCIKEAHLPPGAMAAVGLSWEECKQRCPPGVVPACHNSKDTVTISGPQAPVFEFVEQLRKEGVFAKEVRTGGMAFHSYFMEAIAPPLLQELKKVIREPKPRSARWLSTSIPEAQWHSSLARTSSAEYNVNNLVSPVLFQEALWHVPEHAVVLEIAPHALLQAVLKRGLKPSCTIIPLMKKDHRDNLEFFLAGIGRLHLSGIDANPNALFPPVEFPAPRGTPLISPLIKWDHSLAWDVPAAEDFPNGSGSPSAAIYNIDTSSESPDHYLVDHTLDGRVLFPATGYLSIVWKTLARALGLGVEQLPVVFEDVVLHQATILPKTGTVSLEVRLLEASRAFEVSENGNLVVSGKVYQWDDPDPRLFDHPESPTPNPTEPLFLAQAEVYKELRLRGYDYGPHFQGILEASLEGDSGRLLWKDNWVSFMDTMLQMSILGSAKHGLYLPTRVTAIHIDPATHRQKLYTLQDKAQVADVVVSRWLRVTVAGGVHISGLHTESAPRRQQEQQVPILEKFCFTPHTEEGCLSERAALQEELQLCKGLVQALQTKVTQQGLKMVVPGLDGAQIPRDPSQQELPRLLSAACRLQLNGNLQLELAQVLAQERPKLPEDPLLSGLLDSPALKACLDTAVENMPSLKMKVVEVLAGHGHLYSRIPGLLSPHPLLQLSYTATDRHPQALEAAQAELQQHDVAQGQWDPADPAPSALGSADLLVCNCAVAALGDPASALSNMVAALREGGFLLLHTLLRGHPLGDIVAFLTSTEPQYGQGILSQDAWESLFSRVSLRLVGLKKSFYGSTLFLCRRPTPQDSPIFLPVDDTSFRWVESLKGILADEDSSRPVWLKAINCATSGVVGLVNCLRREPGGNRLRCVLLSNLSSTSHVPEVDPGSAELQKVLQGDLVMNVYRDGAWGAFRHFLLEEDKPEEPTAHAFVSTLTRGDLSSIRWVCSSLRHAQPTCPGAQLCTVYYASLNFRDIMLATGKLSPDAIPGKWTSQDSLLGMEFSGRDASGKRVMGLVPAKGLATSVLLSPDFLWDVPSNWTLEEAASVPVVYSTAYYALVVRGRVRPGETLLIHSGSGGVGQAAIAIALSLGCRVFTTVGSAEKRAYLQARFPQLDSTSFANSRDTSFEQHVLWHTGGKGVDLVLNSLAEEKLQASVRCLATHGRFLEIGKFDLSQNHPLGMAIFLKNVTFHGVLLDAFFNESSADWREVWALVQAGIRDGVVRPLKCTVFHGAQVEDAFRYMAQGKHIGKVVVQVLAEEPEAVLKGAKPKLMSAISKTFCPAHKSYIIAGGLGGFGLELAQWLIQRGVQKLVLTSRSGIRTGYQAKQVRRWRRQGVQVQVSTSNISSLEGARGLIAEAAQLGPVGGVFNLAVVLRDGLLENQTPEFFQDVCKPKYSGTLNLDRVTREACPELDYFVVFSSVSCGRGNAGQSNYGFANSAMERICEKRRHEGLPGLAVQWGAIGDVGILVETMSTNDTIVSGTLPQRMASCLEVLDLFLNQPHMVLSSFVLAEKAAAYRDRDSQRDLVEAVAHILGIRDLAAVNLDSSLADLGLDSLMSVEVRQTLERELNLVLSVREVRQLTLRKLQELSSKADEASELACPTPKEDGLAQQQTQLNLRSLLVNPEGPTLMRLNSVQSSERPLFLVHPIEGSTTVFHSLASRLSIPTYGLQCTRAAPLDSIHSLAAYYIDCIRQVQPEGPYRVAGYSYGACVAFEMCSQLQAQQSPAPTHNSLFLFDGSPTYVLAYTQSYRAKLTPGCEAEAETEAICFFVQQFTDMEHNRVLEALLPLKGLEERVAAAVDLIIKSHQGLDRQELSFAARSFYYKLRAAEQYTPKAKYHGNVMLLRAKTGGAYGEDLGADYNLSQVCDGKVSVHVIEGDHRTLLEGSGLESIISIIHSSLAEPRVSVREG

[9] = target: T4, Ubiquitin-conjugating enzyme E2 N (Homo sapiens, UniProt P61088); format: functional;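 further: Dose-response confirmation in a TR-FRET assay detecting UBC13-driven polyubiquitin chain formation, inhibition measured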
T4 sequence (P61088 whole entry): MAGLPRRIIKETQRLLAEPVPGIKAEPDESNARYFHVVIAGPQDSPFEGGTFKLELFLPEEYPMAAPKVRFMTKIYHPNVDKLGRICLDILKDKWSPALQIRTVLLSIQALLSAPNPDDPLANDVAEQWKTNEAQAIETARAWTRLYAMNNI

[10] = NIH-3T3 fibroblast cytotoxicity, dose response, cytotoxicity control, cell-based, fluorescence, Alamar Blue, secondary assay (AID 2327); format: functional;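 further: NIH-3T3 mouse fibroblasts cultured with fluconazole at 8 µg/mL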
[11] = fluconazole-exposed Candida albicans growth modulators – fluorescence, retest, confirmation (AID 2467); format: functional, cell-based

Sequence of Genome polyprotein (P29990 2492-3391 limits assumed): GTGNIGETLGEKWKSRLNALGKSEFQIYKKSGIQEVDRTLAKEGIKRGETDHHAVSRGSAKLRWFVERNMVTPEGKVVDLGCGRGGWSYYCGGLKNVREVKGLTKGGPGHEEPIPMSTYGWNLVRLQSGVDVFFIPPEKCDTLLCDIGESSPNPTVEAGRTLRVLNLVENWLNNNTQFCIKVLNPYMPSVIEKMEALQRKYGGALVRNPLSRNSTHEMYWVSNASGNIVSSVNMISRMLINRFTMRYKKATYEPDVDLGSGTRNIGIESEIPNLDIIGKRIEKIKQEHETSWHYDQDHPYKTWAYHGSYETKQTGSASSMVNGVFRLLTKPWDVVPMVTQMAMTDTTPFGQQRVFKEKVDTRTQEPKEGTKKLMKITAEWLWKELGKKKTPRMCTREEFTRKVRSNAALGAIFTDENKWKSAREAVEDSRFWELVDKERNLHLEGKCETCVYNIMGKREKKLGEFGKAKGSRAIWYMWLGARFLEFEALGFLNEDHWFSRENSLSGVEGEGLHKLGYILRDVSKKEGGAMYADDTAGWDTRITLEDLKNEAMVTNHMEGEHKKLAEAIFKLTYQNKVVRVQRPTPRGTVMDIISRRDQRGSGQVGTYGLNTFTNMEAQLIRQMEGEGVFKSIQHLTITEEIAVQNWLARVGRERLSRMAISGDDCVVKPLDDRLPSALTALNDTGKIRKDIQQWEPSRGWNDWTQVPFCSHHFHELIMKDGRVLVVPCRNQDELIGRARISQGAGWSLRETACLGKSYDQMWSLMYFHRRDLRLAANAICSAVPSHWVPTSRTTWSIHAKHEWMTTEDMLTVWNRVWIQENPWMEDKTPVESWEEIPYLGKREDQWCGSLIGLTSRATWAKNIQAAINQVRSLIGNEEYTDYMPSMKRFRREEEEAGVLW

COc1ccc(OC)c(N2C(=O)C(Cl)=C(N3CCOCC3)C2=O)c1
IC50 (Genome polyprotein): 18.1 µM (active)
EC50 (Protein RecA): 26.3 µM (active)
AC50 [1]: 145 µM (active)

COc1ccc(NC(=O)Nc2ccc3c(c2)CC(=O)N([C@@H](C)CO)C[C@H](C)[C@@H](CN(C)Cc2ccc(C(F)(F)F)cc2)O3)cc1
AC50 [2]: 5.55 µM (active)

Cc1nc2sc(C(c3ccc(Cl)cc3)N3CCN(c4ccccc4F)CC3)c(O)n2n1 (centres undefined)
AC50 [3]: 1.69 µM (active)

CON(C)c1nc(OCCNC(=O)OCc2ccc(Cl)cc2C)nc(N(C)C)n1
AC50 [4]: 2.32 µM (active)
AC50 [5]: 2.22 µM (active)
AC50 [6]: 1.29 µM (active)
AC50 [7]: 0.357 µM (active)

CC(C)OP(=O)(Nc1cccc2ccccc12)OC(C)C
AC50 [4]: 5.98 µM (active)
AC50 [5]: 5.55 µM (active)
AC50 [6]: 4.78 µM (active)
AC50 [7]: 7.86 µM (active)

C[C@H]1CN([C@@H](C)CO)C(=O)c2cccc(NC(=O)Nc3ccccc3)c2O[C@H]1CN(C)C(=O)Nc1ccc2c(c1)OCO2
AC50 [2]: 20 µM (inactive)

C[C@@H]1CN([C@H](C)CO)C(=O)c2cc(NC(=O)Nc3ccc4c(c3)OCO4)ccc2O[C@@H]1CN(C)Cc1ccc(-c2ccccc2)cc1
AC50 [2]: 2.72 µM (active)

COc1ccc(-c2nc3cnccn3c2Nc2ccc3c(c2)OCO3)cc1
AC50 [3]: 0.702 µM (active)

O=C(CSc1ncn(-c2ccccc2)n1)Nc1ccc(Br)cn1
EC50 [8]: 5.67 µM (active)

CC(=O)CSc1nnc(CSc2ncccn2)n1C1CCCCC1
AC50 [3]: 13.9 µM (active)

NC(=NOC(=O)CCCc1ccccc1)c1cccc([N+](=O)[O-])c1
IC50 (Fatty acid synthase): 11.6 µM (active)

C[C@H](CO)N1C[C@H](C)[C@H](CN(C)Cc2ccc(Cl)c(Cl)c2)Oc2c(NC(=O)c3nc4ccccc4s3)cccc2C1=O
AC50 [2]: 6.38 µM (active)

CCOc1ccc(N(C(=O)c2snc(C(N)=O)c2N)C(C(=O)NCC2CCCO2)c2ccc(C)o2)cc1 (centres undefined)
IC50 [9]: > 20 µM (inactive)

O=C(C[n+]1cc(-c2ccc(Cl)cc2)n2c1CCC2)N1c2ccccc2Sc2ccccc21
EC50 [10]: > 160 µM (inconclusive)
AC50 [3]: 6.34 µM (active)
EC50 [11]: > 38 µM (not active)
